What was measured:
[1] = molecular target: Histone-lysine N-methyltransferase SETD2 (Homo sapiens) (UniProt Q9BYW2); assay: Selectivity interaction (Methyltransferase screen (Scintillation proximity assays)) EUB0000255b SETD2
[2] = molecular target: T1, Aurora kinase A (Homo sapiens) (UniProt O14965); assay: Selectivity interaction (KinomeScan (DiscoverX)) EUB0000092b STK6; details: at 10 µM
T1 sequence (whole entry): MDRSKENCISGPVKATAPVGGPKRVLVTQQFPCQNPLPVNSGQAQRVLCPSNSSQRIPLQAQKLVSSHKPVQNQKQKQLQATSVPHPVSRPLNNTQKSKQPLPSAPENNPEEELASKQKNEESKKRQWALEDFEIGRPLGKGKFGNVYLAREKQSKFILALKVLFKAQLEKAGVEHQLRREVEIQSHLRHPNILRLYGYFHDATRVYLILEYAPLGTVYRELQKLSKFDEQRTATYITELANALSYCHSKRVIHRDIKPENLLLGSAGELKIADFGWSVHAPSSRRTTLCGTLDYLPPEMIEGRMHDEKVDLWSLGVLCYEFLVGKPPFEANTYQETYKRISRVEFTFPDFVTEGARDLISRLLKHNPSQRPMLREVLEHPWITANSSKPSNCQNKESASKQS

[3] = molecular target: T2, Myotonin-protein kinase (Homo sapiens) (UniProt Q09013); assay: Selectivity interaction (KinomeScan (DiscoverX)) EUB0000655a DMPK; details: at 10 µM
T2 sequence (whole entry): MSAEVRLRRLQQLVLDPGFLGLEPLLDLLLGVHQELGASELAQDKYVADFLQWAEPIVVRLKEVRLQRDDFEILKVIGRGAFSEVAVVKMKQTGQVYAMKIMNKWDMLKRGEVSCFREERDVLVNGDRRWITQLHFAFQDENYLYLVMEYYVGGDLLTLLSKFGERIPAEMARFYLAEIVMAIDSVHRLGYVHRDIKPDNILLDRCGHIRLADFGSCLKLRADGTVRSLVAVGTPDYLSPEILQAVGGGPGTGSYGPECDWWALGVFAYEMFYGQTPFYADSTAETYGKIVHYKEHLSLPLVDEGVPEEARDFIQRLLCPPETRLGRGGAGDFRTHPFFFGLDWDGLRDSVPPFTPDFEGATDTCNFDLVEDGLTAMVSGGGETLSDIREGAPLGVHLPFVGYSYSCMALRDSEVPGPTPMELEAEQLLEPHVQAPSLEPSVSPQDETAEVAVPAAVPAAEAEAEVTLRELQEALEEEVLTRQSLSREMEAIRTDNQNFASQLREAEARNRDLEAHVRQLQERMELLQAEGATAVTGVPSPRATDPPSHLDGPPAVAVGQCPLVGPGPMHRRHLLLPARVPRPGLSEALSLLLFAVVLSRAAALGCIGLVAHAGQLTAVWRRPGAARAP

[4] = molecular target: T3, Calcium/calmodulin-dependent protein kinase type IV (Homo sapiens) (UniProt Q16566); assay: Selectivity interaction (ProQinase) EUB0000171b CAMK4
T3 sequence (whole entry): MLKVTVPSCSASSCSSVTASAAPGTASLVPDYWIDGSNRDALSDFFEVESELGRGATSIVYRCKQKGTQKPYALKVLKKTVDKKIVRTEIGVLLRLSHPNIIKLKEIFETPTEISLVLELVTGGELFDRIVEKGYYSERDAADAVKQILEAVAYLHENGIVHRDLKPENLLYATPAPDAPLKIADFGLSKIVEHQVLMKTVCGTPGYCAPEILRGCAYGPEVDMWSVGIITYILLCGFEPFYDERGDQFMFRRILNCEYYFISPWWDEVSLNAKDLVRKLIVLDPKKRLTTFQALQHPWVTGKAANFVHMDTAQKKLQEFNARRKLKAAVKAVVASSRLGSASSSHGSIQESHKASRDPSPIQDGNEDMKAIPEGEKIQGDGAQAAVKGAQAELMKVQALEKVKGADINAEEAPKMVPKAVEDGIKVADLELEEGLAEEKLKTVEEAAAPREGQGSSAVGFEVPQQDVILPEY

[5] = molecular target: RAC-gamma serine/threonine-protein kinase (Homo sapiens, UniProt Q9Y243); assay: Selectivity interaction (KinomeScan (DiscoverX)) EUB0000666a AKT3; details: at 10 µM
Chain of RAC-gamma serine/threonine-protein kinase (Q9Y243 whole entry): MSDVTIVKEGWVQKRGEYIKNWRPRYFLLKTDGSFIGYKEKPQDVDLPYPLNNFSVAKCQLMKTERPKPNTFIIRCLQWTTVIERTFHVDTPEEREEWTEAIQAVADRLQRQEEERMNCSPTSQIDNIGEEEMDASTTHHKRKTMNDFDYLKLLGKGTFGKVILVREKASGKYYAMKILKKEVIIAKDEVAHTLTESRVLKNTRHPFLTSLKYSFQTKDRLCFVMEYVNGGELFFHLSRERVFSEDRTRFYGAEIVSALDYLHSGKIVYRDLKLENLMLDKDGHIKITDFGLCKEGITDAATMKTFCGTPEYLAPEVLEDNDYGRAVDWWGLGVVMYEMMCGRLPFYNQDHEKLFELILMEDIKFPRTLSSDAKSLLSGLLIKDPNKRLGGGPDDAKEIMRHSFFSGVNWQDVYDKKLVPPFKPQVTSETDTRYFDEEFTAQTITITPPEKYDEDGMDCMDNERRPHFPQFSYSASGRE

[6] = molecular target: Tyrosine-protein kinase JAK2 (Homo sapiens, UniProt O60674); assay: Selectivity interaction (KinomeScan (DiscoverX)) EUB0000666a JAK2; details: at 10 µM
[7] = molecular target: Tyrosine-protein kinase Fer (Homo sapiens) (UniProt P16591); assay: Selectivity interaction (KinaseProfiler screening (Millipore)) EUB0000601a FER; details: at 3 µM
[8] = molecular target: Tyrosine-protein kinase receptor UFO (Homo sapiens) (UniProt P30530); details: at 10 µM
Chain of Tyrosine-protein kinase receptor UFO (Homo sapiens) (P30530 whole entry): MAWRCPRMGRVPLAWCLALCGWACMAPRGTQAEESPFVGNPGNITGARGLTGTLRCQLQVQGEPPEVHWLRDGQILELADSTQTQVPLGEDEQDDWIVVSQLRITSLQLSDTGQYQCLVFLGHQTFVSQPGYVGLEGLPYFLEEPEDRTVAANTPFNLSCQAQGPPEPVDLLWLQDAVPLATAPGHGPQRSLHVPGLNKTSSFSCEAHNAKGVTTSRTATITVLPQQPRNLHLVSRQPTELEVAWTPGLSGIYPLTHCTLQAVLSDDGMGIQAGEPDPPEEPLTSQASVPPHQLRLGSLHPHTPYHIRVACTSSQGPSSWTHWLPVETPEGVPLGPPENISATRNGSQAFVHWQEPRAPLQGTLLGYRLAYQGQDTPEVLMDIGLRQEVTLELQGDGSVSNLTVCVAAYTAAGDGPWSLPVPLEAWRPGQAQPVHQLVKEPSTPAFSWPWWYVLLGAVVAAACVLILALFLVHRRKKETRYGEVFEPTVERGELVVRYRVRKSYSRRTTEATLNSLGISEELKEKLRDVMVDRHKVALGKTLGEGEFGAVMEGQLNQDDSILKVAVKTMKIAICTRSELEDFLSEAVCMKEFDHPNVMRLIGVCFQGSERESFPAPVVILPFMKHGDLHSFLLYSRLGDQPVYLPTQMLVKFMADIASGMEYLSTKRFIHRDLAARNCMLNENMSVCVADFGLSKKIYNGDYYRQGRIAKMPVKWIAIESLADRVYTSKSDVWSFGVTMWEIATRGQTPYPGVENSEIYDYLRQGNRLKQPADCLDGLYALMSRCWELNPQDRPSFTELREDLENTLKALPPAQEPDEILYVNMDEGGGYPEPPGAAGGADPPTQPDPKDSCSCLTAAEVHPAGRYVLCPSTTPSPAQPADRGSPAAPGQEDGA

[9] = molecular target: Proto-oncogene tyrosine-protein kinase receptor Ret (Homo sapiens, UniProt P07949); details: at 10 µM
[10] = molecular target: Serine/threonine-protein kinase SBK1 (Homo sapiens) (UniProt Q52WX2); details: at 10 µM
Chain of Serine/threonine-protein kinase SBK1 (Homo sapiens) (Q52WX2 whole entry): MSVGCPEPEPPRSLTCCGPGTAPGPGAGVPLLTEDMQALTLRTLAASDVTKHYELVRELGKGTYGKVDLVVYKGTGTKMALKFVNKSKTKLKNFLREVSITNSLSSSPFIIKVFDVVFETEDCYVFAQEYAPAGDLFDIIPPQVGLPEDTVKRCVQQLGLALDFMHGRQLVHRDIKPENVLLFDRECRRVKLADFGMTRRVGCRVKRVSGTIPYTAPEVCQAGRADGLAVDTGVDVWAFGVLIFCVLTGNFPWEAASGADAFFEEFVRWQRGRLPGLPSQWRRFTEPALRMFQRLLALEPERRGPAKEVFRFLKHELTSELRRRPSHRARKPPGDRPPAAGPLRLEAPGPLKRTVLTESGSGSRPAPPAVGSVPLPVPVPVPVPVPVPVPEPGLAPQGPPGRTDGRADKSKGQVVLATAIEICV

[11] = molecular target: Mitogen-activated protein kinase 1 (Homo sapiens, UniProt P28482); assay: Selectivity interaction (Rxn Biology Kinase assay) EUB0001632a MAPK1; details: at 10 µM
[12] = molecular target: Ribosomal protein S6 kinase alpha-3 (Homo sapiens, UniProt P51812); assay: Selectivity interaction (ActivX KiNativ screen (kinase selectivity in THP-1 cell lysates)) EUB0000639a RPS6KA3; assay type: subcellular; details: lysate, at 0.2 µM
[13] = molecular target: Ribosomal protein S6 kinase beta-1 (Homo sapiens, UniProt P23443); assay: Selectivity interaction (ActivX KiNativ screen (kinase selectivity in THP-1 cell lysates)) EUB0000639a RPS6KB1; assay type: subcellular; details: lysate, at 0.01 µM
[14] = molecular target: Protein kinase C eta type (Homo sapiens) (UniProt P24723); assay: Selectivity interaction (SelectScreen profiling (Invitrogen)) EUB0000607a PRKCH; details: at 2 µM
Chain of Protein kinase C eta type (Homo sapiens) (P24723 whole entry): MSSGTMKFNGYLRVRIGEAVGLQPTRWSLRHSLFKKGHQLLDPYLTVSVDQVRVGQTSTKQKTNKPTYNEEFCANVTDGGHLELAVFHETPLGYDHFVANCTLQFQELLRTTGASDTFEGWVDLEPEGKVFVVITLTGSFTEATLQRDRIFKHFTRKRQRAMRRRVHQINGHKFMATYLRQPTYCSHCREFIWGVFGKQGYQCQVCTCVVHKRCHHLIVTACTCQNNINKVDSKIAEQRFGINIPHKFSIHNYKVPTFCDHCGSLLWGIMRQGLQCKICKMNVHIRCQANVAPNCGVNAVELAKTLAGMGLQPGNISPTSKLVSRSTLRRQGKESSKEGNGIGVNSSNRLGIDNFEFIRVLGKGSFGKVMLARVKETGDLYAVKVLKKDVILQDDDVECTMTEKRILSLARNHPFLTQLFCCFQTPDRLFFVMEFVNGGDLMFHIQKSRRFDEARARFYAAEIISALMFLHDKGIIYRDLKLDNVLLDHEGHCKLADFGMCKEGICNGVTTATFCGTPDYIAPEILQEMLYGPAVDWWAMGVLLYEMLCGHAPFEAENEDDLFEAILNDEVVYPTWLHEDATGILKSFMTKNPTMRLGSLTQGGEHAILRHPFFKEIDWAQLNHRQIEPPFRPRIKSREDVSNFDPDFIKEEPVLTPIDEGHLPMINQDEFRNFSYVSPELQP

[15] = molecular target: Mitogen-activated protein kinase 9 (Homo sapiens, UniProt P45984); assay: Selectivity interaction (KinomeScan (DiscoverX)) EUB0000607a MAPK9; details: at 10 µM
[16] = molecular target: Mitogen-activated protein kinase kinase kinase 1 (Homo sapiens, UniProt Q13233); assay: Selectivity interaction (KinomeScan (DiscoverX)) EUB0001049a MAP3K1; details: at 1 µM
[17] = molecular target: T3, Calcium/calmodulin-dependent protein kinase type IV (Homo sapiens); assay: Selectivity interaction (KinomeScan (DiscoverX)) EUB0001049a CAMK4; details: at 1 µM
[18] = molecular target: Platelet-derived growth factor receptor beta (Homo sapiens, UniProt P09619); assay: Selectivity interaction (KinomeScan (DiscoverX)) EUB0000618a PDGFRB; details: at 10 µM

Chain of Histone-lysine N-methyltransferase SETD2 (Homo sapiens) (Q9BYW2 whole entry): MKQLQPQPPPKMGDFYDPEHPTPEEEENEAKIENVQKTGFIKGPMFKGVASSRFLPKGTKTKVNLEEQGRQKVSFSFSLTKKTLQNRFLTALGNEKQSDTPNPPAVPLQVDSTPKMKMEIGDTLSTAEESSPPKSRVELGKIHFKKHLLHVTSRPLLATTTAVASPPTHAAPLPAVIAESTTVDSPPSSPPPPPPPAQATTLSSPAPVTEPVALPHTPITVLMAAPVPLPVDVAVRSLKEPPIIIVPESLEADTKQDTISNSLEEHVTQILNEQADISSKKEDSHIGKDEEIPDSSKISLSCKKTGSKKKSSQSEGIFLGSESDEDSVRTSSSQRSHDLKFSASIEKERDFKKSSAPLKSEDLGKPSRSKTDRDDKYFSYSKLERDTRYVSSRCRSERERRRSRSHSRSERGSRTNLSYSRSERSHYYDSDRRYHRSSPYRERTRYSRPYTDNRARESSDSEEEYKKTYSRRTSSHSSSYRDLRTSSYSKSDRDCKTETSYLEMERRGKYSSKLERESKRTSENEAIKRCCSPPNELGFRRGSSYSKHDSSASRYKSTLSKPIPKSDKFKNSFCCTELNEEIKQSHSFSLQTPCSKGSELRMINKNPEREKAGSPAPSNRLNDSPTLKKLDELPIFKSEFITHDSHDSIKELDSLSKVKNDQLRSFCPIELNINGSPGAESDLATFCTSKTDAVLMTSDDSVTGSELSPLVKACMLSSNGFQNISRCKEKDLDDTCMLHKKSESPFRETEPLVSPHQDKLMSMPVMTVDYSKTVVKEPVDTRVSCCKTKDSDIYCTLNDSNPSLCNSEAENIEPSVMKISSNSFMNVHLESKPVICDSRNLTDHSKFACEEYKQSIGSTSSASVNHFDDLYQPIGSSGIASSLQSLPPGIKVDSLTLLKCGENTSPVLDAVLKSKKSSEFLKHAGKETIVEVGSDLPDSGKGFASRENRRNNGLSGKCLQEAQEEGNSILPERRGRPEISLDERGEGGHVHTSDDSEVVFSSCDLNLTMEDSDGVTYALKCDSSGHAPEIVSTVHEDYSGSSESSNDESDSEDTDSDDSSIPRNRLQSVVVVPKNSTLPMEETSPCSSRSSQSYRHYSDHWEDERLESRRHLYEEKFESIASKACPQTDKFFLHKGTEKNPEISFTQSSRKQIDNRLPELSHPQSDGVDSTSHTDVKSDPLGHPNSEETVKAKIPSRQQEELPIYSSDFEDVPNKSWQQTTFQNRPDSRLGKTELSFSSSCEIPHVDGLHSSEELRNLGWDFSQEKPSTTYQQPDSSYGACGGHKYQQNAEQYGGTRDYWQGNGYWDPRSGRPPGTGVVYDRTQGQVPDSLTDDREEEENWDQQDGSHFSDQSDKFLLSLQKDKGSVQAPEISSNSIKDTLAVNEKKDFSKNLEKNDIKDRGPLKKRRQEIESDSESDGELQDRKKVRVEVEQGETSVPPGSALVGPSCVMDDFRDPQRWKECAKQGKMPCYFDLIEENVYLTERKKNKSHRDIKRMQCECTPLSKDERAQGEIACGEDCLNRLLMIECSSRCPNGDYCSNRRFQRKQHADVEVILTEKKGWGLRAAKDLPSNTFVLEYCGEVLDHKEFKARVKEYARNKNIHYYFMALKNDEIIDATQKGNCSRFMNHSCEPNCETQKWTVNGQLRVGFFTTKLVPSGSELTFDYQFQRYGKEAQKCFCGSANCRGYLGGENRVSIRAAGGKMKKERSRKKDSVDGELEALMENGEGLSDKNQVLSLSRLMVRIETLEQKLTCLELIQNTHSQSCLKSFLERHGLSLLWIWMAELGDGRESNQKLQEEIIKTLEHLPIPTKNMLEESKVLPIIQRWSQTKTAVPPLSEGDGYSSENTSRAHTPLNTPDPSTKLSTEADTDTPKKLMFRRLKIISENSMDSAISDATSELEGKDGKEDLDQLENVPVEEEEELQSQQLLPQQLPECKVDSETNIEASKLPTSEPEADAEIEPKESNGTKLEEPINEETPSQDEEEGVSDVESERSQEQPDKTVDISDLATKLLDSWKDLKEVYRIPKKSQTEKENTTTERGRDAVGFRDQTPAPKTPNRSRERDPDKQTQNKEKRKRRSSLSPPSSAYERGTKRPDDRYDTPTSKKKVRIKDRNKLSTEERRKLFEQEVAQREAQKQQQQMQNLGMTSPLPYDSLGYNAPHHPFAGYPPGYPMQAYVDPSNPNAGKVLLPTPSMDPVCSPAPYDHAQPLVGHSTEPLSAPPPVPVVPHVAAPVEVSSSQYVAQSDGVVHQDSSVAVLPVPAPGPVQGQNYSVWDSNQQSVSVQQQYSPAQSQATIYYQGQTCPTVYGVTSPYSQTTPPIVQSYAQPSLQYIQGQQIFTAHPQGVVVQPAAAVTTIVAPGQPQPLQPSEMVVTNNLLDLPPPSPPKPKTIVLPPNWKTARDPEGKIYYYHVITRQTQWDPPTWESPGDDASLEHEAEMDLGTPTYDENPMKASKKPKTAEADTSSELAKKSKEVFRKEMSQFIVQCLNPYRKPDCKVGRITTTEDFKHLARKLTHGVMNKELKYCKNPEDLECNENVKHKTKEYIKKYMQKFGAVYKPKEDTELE

COCCN1CCC(c2cc(CN(C)C(=O)c3cccc(Oc4ccccc4)c3)ccn2)CC1
% activity ([1]; at 1 µM): > 95%
% activity ([1]; at 10 µM): > 90%

CCC(=O)N1CCN(c2ccc(-n3c(=O)ccc4cnc5ccc(-c6cnc7ccccc7c6)cc5c43)cc2C(F)(F)F)CC1
% of control [2]: 100%

CN(C)CCOc1ccc(-c2nc(-c3ccncc3)c(-c3ccc4c(c3)CC/C4=N\O)[nH]2)cc1
% of control [3]: 100%

C=CC(=O)Nc1cccc(C(=O)Nc2ccc(Nc3cc(-c4[nH]c(SC)nc4C)ccn3)cc2)c1
% of control ([4]; at 1 µM): 110%
% of control ([4]; at 5 µM): 91%

O=C(NOC[C@H](O)CO)c1ccc(F)c(F)c1Nc1ccc(I)cc1F
% of control [5]: 89%
% of control [6]: 100%

CCc1cc(Nc2nccc(-c3c(-c4ccc(OC)c(C(=O)Nc5c(F)cccc5F)c4)nc4ccccn34)n2)c(OC)cc1N1CCC(N2CCN(S(C)(=O)=O)CC2)CC1
% of inhibition [7]: 93%

Cc1cc([C@@H](C)Nc2ccccc2C(=O)O)c2nc(N3CCOCC3)cc(=O)n2c1 [AZD-6482]
% of control [8]: 86%
% of control [9]: 100%
% of control [10]: 100%

Cn1cc(-n2cnc3c(NCc4nc5cc(Cl)c(Cl)cc5[nH]4)nc(N4CCOCC4)nc32)cn1
% of inhibition [11]: 5.79%

CC[C@@H]1[C@H](F)C(=O)N[C@@H]1COc1nccc2cc(C(N)=O)c(OC)cc12 [ZIMLOVISERTIB]
% of inhibition [12]: 15.4%
% of inhibition [13]: -0.4%

CNC(=O)Nc1ccc(-c2nc(N3CC4CCC(C3)O4)c3cnn(C4CCC5(CC4)OCCO5)c3n2)cc1
% of inhibition [14]: 14%
% of control [15]: 85%

COc1cc(Nc2nc(C)cc(-c3cnn4nc(OC)ccc34)n2)cc(C(F)(F)F)c1
% of control [16]: 86%
% of control [17]: 100%

O[C@H]1CC[C@H](Nc2ncc3nc(Nc4c(F)cc(F)cc4F)n([C@H]4CCOC4)c3n2)CC1
% of control [18]: 64%
